In patent US20220009894A1, “1,2,3,4-TETRAHYDROQUINOXALINE DERIVATIVE, PREPARATION METHOD THEREFOR AND APPLICATION THEREOF” (Abbisko Therapeutics Co., Ltd., priority 2019, published 2022):

How the values were obtained:
[1] = molecular target: T1, RORγt-LBD (Homo sapiens, UniProt P51449); test: Time-resolved fluorescence resonance energy-transfer assay (TR-FRET), co-activator peptide recruitment; type: biochemical; design: TR-FRET Biochemical Amax: unit not given here; details: for EC50: His-RORγt-LBD 30 nM, SRC peptide 500 nM, agonistic activity, averages of one or more measurements, read-out: TR-FRET Biochemical EC50/; for TR-FRET Biochemical Amax: upper activation limit, His-RORγt-LBD, SRC peptide
T1 sequence (P51449 269-508 limits assumed): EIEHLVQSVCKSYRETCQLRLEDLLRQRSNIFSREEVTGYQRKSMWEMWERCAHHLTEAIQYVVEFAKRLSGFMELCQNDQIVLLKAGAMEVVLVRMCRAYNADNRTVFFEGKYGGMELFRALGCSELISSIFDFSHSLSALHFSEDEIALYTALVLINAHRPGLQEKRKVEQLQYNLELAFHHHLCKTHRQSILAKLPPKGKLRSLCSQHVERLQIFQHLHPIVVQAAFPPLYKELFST
Excerpt: I. Time-Resolved Fluorescence Resonance Energy-Transfer Assay (TR-FRET)
This experiment was a screening experiment for RORγt nuclear receptor agonists based on TR-FRET technology. When His-labeled RORγt-LBD receptor binds to receptor agonists, it may increase the recruitment of biotin-labeled co-activator peptides. Europium-His-RORγt-LBD is indirectly labeled by donor (Eu) by binding to Eu-anti-His antibody. Once Eu is activated by an energy source (such as flashlight or laser), the energy will be transferred to the co-activator indirectly labeled by allophycocyanin by binding of allophycocyanin-streptavidin and biotin-labeled co-activator. • 1. 10× buffer (500 mM Tris-HCl, 500 mM KCl, and 10 mM Na-EDTA) was prepared, pH value was adjusted to 7.0. The buffer was stored at 4° C. for later use and was restored to normal temperature before experiment; • 2. The 10× buffer was diluted to 1× with pure water. Final concentration of 0.01% Triton X-100 and 1 mM DTT (dithiothreitol) were added to prepare the assay buffer; • 3. DMSO was used to prepare 1000× compound stock solution. The compound solution was serial-diluted in 5-fold for 7 concentrations from the top concentration of 1000 nM/10000 nM. Then the 10× compound solution was prepared with assay buffer. An amount of 2 μL was aliquoted into the 20 μL system; • 4. 5×RORγt-LBD protein solution was unfreezed, and a solution of 5× concentration was prepared with assay buffer to obtain a final concentration of 30 nM. The whole operation was carried out on ice; • 5. 5×SRC peptide was unfreezed, and a solution of 5× concentration was prepared with assay buffer to obtain a final concentration of 500 nM. The whole operation was carried out on ice; • 6. 4 μL/well of RORγt-LBD receptor was added into the testing wells of 384-well plate, and the same amount of assay buffer was added to the control wells of non-RORγt-LBD group; • 7. 2 μL of compound was added into each well of 384-well plate; • 8. 4 μL of SRC peptide was added into each well of 384-well plate; • 9. 2× Eu-anti-6× His/APC-Streptavidin was diluted with Lance detection buffer to a final concentration of 0.25 nM and 5 nM, respectively, and then 10 μL of 2× Eu-anti-6× His/APC-Streptavidin was added into each well of 384-well plate; • 10. The mixed solution was incubated at 4° C. overnight; • 11. On the morning of the next day, the 384-well plate was incubated at room temperature for 1 hr. Then the corresponding signal values were read with PerkinElmer EnVision at a wavelength of 665/615 […]. The agonistic activity of the corresponding compound was calculated with Graphpad Prism 7.0 software.

[2] = molecular target: T2, RORγt (Homo sapiens, UniProt P51449); test: RORγt cellular reporter gene detection assay; type: cell-based; details: 24 hrs; for EC50: HEK 293 cells co-transfected with pFN26A-RORγt-LBD and pG14.35, in presence of antagonist Ursolic acid, top concentration 50 μM; for Cellular Reporter Assay Amax: upper activation limit, HEK 293 cells, in presence of antagonist Ursolic acid;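 as to Cellular Reporter Assay Amax: Ursolic Acid added as 5 µL of 20 µM medium per well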
T2 construct: The plasmid of pFN26A-RORγt-LBD and pG14.35 (Promega, Cat. No. E1370) were co-transfected into HEK 293 cells; expressed in transfected cells; host or cells: HEK 293 cells (Cat. No. GNHu18)
T2 sequence (P51449 269-508 limits assumed): T1 sequence (P51449 269-508 limits assumed)
Description: II. RORγt Cellular Reporter Gene Detection Assay
In this experiment, RORγt Reporter Gene Detection method was used to evaluate the activation and specificity of compounds to RORγt in cells. The plasmid of pFN26A-RORγt-LBD and pG14.35 (Promega, Cat. No. E1370) were co-transfected into HEK 293 cells (Cat. No. GNHu18). The efficacy of compounds was evaluated with the presence of an antagonist Ursolic acid (Selleck, Cat. No. S2370-100 mg). The specific experimental process was as follow: • 1. The plasmids-co-transfected cells were inoculated into a 96-well plate (Corning, Cat. No 3610) in a fresh DMEM medium (Gibco, cat. No. 1773536) containing 10% fetal bovine serum (Gibco, Cat. No. 10099-141) at 30000 cells/40 μL/well; • 2. 5 μL of medium containing 20 μM Ursolic acid was added thereto; • 3. The dose effect was evaluated by a 4-fold dilution of the test compound starting from 50 μM; • 4. 5 μL of medium containing a compound concentration of 10-fold of its final test concentration was added; • 5. After the cells were incubated at 37° C. and 5% CO2 for 24 hrs, 50 μL of detection reagent was added to detect firefly fluorescence using PerkinElmerEnVision, and 50 μL of the second detection reagent was added to detect sea kidney fluorescence; • 6. A four-parameter curve simulated in GraphPad Prism was used to determine the concentration for 50% activation (EC50) and the upper activation limit (Amax) for each compound.

SMILES | EC50 [1] [µM] | TR-FRET Biochemical Amax [1] | EC50 [2] [µM] | Cellular Reporter Assay Amax [2]
O=S(=O)(c1cccc(C(F)(F)F)c1)N1C[C@@H]2CN(C[C@H](O)CO)CCN2c2ccc(/C=C/c3c(Cl)cccc3C(F)(F)F)cc21 [Example 36, (S)-3-((S)-8-((E)-2-chloro-6-(trifluoromethyl)styryl)-6-((3-(trifluaromethyl)phenyl)sulfonyl)-1,2,4,4a,5,6-hexahydro-3H-pyrazino[1,2-a]quinoxalin-3-yl)-propane-1,2-diol] | 0.0249 | 1.23 | 0.501 | 4.1
C/C(=C\c1ccc2c(c1)N(S(=O)(=O)c1cccc(C(F)(F)F)c1)C[C@@H]1CN(CC(=O)OCOC(=O)OC(C)C)CCN21)c1c(F)cccc1Cl [Example 49, ((isopropoxycarbonyl)oxy)methyl (S,E)-2-(8-(2-(2-chloro-6-fluorophenyl)prop-1-en-1-yl)-6-((3-(trifluoromethyl)phenyl)sulfonyl)-1,2,4,4a,5,6-hexahydro-3H-pyrazino[1,2-a]quinoxalin-3-yl)acetate] | 0.00547 | 0.61 | 0.238 | 5.2
NC(=S)N1CCN2c3ccc(-c4cc(F)cc(OC(F)F)c4)cc3N(S(=O)(=O)c3cccc(C(F)(F)F)c3)C[C@@H]2C1 [Example 64, (S)-8-(3-(difluoromethoxy)-5-fluorophenyl)-6-((3-(trifluoro-methyl)phenyl)sulfonyl)-1,2,4,4a,5,6-hexahydro-3H-pyrazino [1,2-a]quinoxaline-3-carbo-thioamide] | 0.0478 | 0.80 | 0.563 | 2.7
COC(=O)CN1CCN2c3ccc(/C=C/c4c(Cl)cccc4C(F)(F)F)cc3N(S(=O)(=O)c3cccc(OC(F)(F)F)c3)C[C@@H]2C1 [Example 85, methyl (S,E)-2-(8-(2-chloro-6-(trifluoromethyl)styryl)-6-((3-(trifluoromethoxy)phenyl)sulfonyl)-1,2,4,4a,5,6-hexahydro-3H-pyrazino[1,2-a]quinoxalin-3-yl) acetate] | 0.0754 | 1.01 | 0.279 | 1.8
C/C(=C\c1ccc2c(c1)N(S(=O)(=O)c1cccc(C(F)(F)F)c1)C[C@@H]1CN(C(C)(C)C(=O)O)CCN21)c1c(F)cccc1Cl [Example 56, (S,E)-2-(8-(2-(2-chloro-6-fluoro-phenyl)prop-1-en-1-yl)-6-((3-(trifluoromethyl)phenyl)sulfo-nyl)-1,2,4,4a,5,6-hexahydro-3H-pyrazino[1,2-a]quinoxalin-3-yl)-2-methylpropanoic acid] | 0.0445 | 0.71 | 0.622 | 3.2
O=S(=O)(c1cccc(C(F)(F)F)c1)N1C[C@@H]2COCCN2c2ccc(-c3cc(F)cc(OC(F)F)c3)cc21 [Example 98, (R)-8-(3-(difluoromethoxy)-5-fluorophenyl)-6-((3-(trifluoromethyl)phenyl)sulfonyl)-1,2,4,4a,5,6-hexahydro-[1,4]oxazino[4,3-a]quinoxaline] | 0.0206 | 0.75 | 1.54 | 5.4
NS(=O)(=O)N1CCN2c3ccc(/C=C/c4c(Cl)cccc4C(F)(F)F)cc3N(S(=O)(=O)c3cccc(C(F)(F)F)c3)C[C@@H]2C1 [Example 68, (R,E)-8-(2-chloro-6-(trifluorometh-yl)styryl)-6-((3-(trifluorometh-yl)phenyl)sulfonyl)-1,2,4,4a,5,6-hexahydro-3H-pyrazino[1,2-a]quinoxaline-3-sulfonamide] | 0.0305 | 1.03 | 0.151 | 2.5
C/C(=C\c1ccc2c(c1)N(S(=O)(=O)c1cccc(C(F)(F)F)c1)C[C@@H]1CN(CC(=O)O)CCN21)c1c(F)cccc1Cl [Example 21, (S,E)-2-(8-(2-(2-chloro-6-fluoro-phenyl)prop-1-en-1-yl)-6-((3-(trifluoromethyl)phenyl)sulfonyl)-1,2,4,4a,5,6-hexa-hydro-3H-pyrazino[1,2-a]quinoxalin-3-yl)acetic acid] | 0.0176 | 0.94 | 0.273 | 5.5
COC(=O)CC[C@H]1CN(S(=O)(=O)c2cccc(C(F)(F)F)c2)c2cc(/C=C(\C)c3c(F)cccc3Cl)ccc2N1C [Example 120, methyl (S,E)-3-(6-(2-(2-chloro-6-fluorophenyl)prop-1-en-1-yl)-1-methyl-4-((3-(trifluoromethyl)phenyl)sulfonyl)-1,2,3,4-tetrahydroquinoxalin-2-yl)propanoate] | 0.0649 | 1.07 | 0.157 | 5.7
O=S(=O)(c1cccc(C(F)(F)F)c1)N1C[C@@H]2CN(C[C@@H](O)CO)CCN2c2ccc(-c3cc(F)cc(OC(F)F)c3)cc21 [Example 39, (R)-3-((S)-8-(3-(difluorome-thoxy)-5-fluorophenyl)-6-((3-(trifluoromethyl)phenyl)sulfonyl)-1,2,4,4a,5,6-hexahydro-3H-pyrazino[1,2-a]quinoxalin-3-yl) propane-1,2-diol] | 0.0336 | 0.58 | 1.24 | 2.2
O=S(=O)(c1cccc(C(F)(F)F)c1)N1C[C@@H]2CN(C[C@H](O)CO)CCN2c2ccc(-c3cc(F)cc(OC(F)F)c3)cc21 [Example 40, (S)-3-((S)-8-(3-(difluoromethoxy)-5-fluorophenyl)-6-((3-(tri-fluoromethyl)phenyl)sulfonyl)-1,2,4,4a,5,6-hexahydro-3H-pyrazino[1,2-a]quinoxalin-3-yl) propane-1,2-diol] | 0.013 | 0.76 | 0.733 | 2.5
CC1(C)C=C(c2ccc3c(c2)N(S(=O)(=O)c2cccc(C(F)(F)F)c2)C[C@@H]2CN(C[C@@H](O)CO)CCN32)CC(C)(C)O1 [Example 41, (R)-3-((S)-8-(2,2,6,6-tetrameth-yl-3,6-dihydro-2H-pyran-4-yl)-6-((3-(trifluoromethyl)phe-nyl)sulfonyl)-1,2,4,4a,5,6-hexa-hydro-3H-pyrazino[1,2-a]qui-noxalin-3-yl)propane-1,2-diol] | 0.00673 | 1.01 |  | 
